Measurements as given in patent US20170196893A1, “TREATMENT OF INFLAMMATORY DEMYELINATING DISEASE WITH AGONISTS OF FARNESOID X RECEPTOR” (The Board of Trustees of the Leland Stanford Junior …, priority 2016, published 2017).

Assays:
Type in all cases: in vivo, mouse
[1] = system: splenocytes (CD4+ T cells, CD8+ T cells, CD19+ B cells); test: FACS analysis of splenocytes harvested from treated MOG35-55-immunized mice; details: eleven days oral dosing; for BTLA expression on CD4+ T cells: vehicle 2.87%; for PD1 expression on CD4+ T cells: vehicle 3.5%; for PD-L1 expression on CD4+ T cells: vehicle 8.32%; for BTLA expression on CD19+ B cells: vehicle 12.21%; for BTLA expression on CD8+ T cells: vehicle (WT) 0.78%; for PD1 expression on CD8+ T cells: vehicle (WT) 1.12%; for PD-L1 expression on CD8+ T cells: vehicle (WT) 5.63%; for CD3+CD8+ T cells: vehicle (WT) 6.75%; for CD3+CD4+ T cells: vehicle (WT) 8.34%; for PD1 expression on CD19+ B cells: vehicle (WT) 11.58%; for PD-L1 expression on CD19+ B cells: vehicle (WT) 12.21%; for CD19+B220+ B cells: vehicle (WT) 42.82%; for VLA-4 (CD29+CD49d+) expression on T cells: vehicle (WT) 44.12%; for VLA-4 (CD29+CD49d+) expression on B cells: vehicle (WT) 56.35%
Text: Flow cytometry Cells were stained according to standard protocols, run on a FACScan flow cytometer (BD Biosciences), and analysed with CellQuest software (BD Immunocytometry Systems). The antibody conjugates used were PerCPCy5.5 anti-CD3, FITC anti-CD4, PE anti-CD8, PE anti-B220, PerCp-Cy5.5 anti-B220, FITC anti-CD19, PE anti-PD1, PE anti-PD-L1, PE anti-BTLA, PE anti-CD29, and FITC anti-CD49d (BD Pharmingen & eBioscience)

[2] = system: experimental autoimmune encephalomyelitis (EAE); test: Active EAE, clinical scores of mice with established EAE; details: 5 mg/kg daily oral, 6-ECDCA vs CDCA vs vehicle (FIG. 3B)
[3] = system: MOG35-55-specific lymphocytes; test: 72 h proliferation assay (3H-thymidine) of splenocytes/lymph node cells harvested from treated mice, restimulated with MOG35-55
Experimental: (§1) Proliferation and cytokine assays. Splenocytes and lymph nodes were harvested and stimulated with increasing concentrations of MOG35-55 for a total of 72 hours. For assessment of proliferation, 1 μCi of ^3H-thymidine was added to each well for the final 18-24 hours of culture, and incorporation of radioactivity was measured by using a Betaplate scintillation counter. Cytokine assays were performed on culture supernatants after 72 hours of culture by using the IL-2, IL-6, IFNgamma, and TNF BD OptEIA™ Mouse ELISA kits (BD Biosciences) or Mouse IL-17 DuoSet ELISA Development kit (R&D Systems).

splenocytes = test: Cytokine production (ELISA) by splenocytes harvested from treated mice, restimulated with MOG35-55; details: daily oral treatment of established EAE (FIG. 3D)
Experimental: as §1

[4] = Serum lipid panel analysis of treated MOG35-55-immunized mice fasted overnight; details: eleven days of oral dosing after EAE immunization, overnight fast (FIG. 4A)
Text: Serum Lipid Panel Analysis. Serum from mice fasted overnight was submitted to the Diagnostic Laboratory at Stanford University, Department of Comparative Medicine for a full lipid panel analysis.

[5] = system: experimental autoimmune encephalomyelitis (EAE); test: Adoptive transfer EAE with cells of treated donor mice; details: donor mice treated eleven days, cells restimulated 72 h with MOG35-55 and rIL-12; vs vehicle treated donors (FIG. 4D)
Experimental: Mice and EAE Induction. C57BL/6J and FXRKO (B6.129x1(FVB)-Nr1h4tm1Gonz/J, #0007214) female mice were purchased from the Jackson Laboratory. Animal experiments were approved by, and performed in compliance with, the National Institute of Health guidelines of the Institutional Animal Care and Use Committee at Stanford University. For induction of active and adoptive transfer of EAE, 8- to 12-week-old female mice were immunized subcutaneously with 100 μg of MOG35-55 emulsified in complete Freund's adjuvant (CFA), consisting of incomplete Freund's Adjuvant and 0.4 mg of heat inactivated Mycobacterium tuberculosis, strain H37 RA (Difco Laboratories). On days 0 and 2, mice were also injected intravenously or intraperitoneally with 400 ng pertussis toxin in 0.2 ml 1×PBS. Adoptive transfer requires harvesting lymph nodes and spleens ten days after immunization. Combined lymphocytes and splenocytes are cultured in bulk, at 5×10^7 cells/ml for seventy-two hours in the presence of MOG35-55 (20 μg/ml) and rIL-12 (10 ng/ml, R&D systems). Cells are harvested and washed twice before transfer of 3×10^7 cells in 0.2 ml 1×PBS into naive 6-7 week old female mice, intraperitoneally. Clinical disease was monitored daily using the following scoring system: 0, no disease; 1, limp tail; 2, hind limb weakness; 3, hind limb paralysis; 4, hind limb and forelimb paralysis; 5, death.

Row | SMILES | BTLA expression on CD4+ T cells [1] [%] | PD1 expression on CD4+ T cells [1] [%] | PD-L1 expression on CD4+ T cells [1] [%] | BTLA expression on CD19+ B cells [1] [%] | BTLA expression on CD8+ T cells [1] [%] | PD1 expression on CD8+ T cells [1] [%] | PD-L1 expression on CD8+ T cells [1] [%] | CD3+CD8+ T cells [1] [%] | CD3+CD4+ T cells [1] [%] | PD1 expression on CD19+ B cells [1] [%] | PD-L1 expression on CD19+ B cells [1] [%] | CD19+B220+ B cells [1] [%] | VLA-4 (CD29+CD49d+) expression on T cells [1] [%] | VLA-4 (CD29+CD49d+) expression on B cells [1] [%] | other results
1 | CC[C@H]1[C@@H](O)[C@@H]2[C@H](CC[C@]3(C)[C@@H]([C@H](C)CCC(=O)O)CC[C@@H]23)[C@@]2(C)CC[C@@H](O)C[C@@H]12 [6-ECDCA, 6α-Ethyl-chenodeoxycholic acid] | 2.38 | 2.74 | 6.59 | 6.23 | 1.21 | 1.82 | 9.5 | 12.22 | 7.33 | 12.3 | 11.34 | 30.69 | 36.67 | 51.98 | 
2 | C[C@H](CCC(=O)O)[C@H]1CC[C@H]2[C@@H]3[C@H](O)C[C@@H]4C[C@H](O)CC[C@]4(C)[C@H]3CC[C@]12C [CDCA, Chenodeoxycholic acid] | 2.77 | 2.64 | 8.43 | 6.76 | 1.92 | 1.63 | 12.3 | 12.92 | 7.89 | 9.58 | 3.79 | 36.07 | 33.78 | 49.16 | Clinical EAE score (average EAE disease grade) [2]: clinical disease was ameliorated; T cell recall responses to MOG35-55 ([3]; daily oral treatment of established EAE (FIG. 3C)): significantly suppressed; Recall responses of MOG35-55-specific lymphocytes (proliferation) ([3]; eleven days of oral dosing, combined splenocytes and lymphocytes, vs vehicle (FIG. 4B)): greatly reduced; IFN-gamma production (splenocytes): decreased; IL-6 production (splenocytes): decreased; IL-17 production (splenocytes): not significantly altered; TNF production (splenocytes): decreased; Serum HDL levels [4]: decreased; Serum cholesterol levels [4]: decreased; Serum low-density lipoprotein (LDL) levels [4]: not significantly altered; Serum triglycerides [4]: not significantly altered; Clinical EAE scores of naive recipient mice [5]: significantly less severe disease
